# Test results: PubChem BioAssay (NCI)
#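 Dose response: 5 concentrations. Exposure: 48 h. Format: 96-well plates. Endpoint: linear interpolation; highest concentration if not reached. GI50: concentration for 50% inhibition of growth. Definition used: TGI = concentration required for complete inhibition of growth.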
# Columns and labels:
# Assay in all cases: growth of human tumour cells (NCI), 48 h
# RPMI-8226 leukemia = test system: RPMI-8226 leukemia
# NCI-H226 lung = test system: NCI-H226 lung
# UACC-62 melanoma = test system: UACC-62 melanoma
# SNB-75 CNS = test system: SNB-75 CNS
# OVCAR-3 ovarian = test system: OVCAR-3 ovarian
# HOP-92 NSCLC = test system: HOP-92 NSCLC
# OVCAR-4 ovarian = test system: OVCAR-4 ovarian
# SF-539 CNS = test system: SF-539 CNS
# M14 melanoma = test system: M14 melanoma
# A549 NSCLC = test system: A549 NSCLC
SMILES,TGI (RPMI-8226 leukemia) [µM],TGI (NCI-H226 lung) [µM],TGI (UACC-62 melanoma) [µM],TGI (SNB-75 CNS) [µM],TGI (OVCAR-3 ovarian) [µM],TGI (HOP-92 NSCLC) [µM],TGI (OVCAR-4 ovarian) [µM],TGI (SF-539 CNS) [µM],TGI (M14 melanoma) [µM],TGI (A549 NSCLC) [µM],GI50 (RPMI-8226 leukemia) [µM],GI50 (NCI-H226 lung) [µM],GI50 (UACC-62 melanoma) [µM],GI50 (SNB-75 CNS) [µM],GI50 (OVCAR-3 ovarian) [µM],GI50 (HOP-92 NSCLC) [µM],GI50 (OVCAR-4 ovarian) [µM],GI50 (SF-539 CNS) [µM],GI50 (M14 melanoma) [µM],GI50 (A549 NSCLC) [µM]
Cc1ccc(-c2cc(-c3ccco3)c(C#N)c(=O)[nH]2)cc1,> 100,> 100,> 100,> 100,> 100,> 100,> 100,> 100,> 100,> 100,–,–,–,–,–,–,–,–,–,–
CCCNCCCC(NC(C)=O)C(=O)NCc1ccccc1 (configuration not stated),> 100,> 100,> 100,> 100,> 100,> 100,> 100,> 100,> 100,> 100,–,–,–,–,–,–,–,–,–,–
CC(=O)NNc1nc(C)c(C(=O)NNC(=O)C(=O)Nc2c(C)cccc2C)s1,> 100,> 100,> 100,> 100,65.3,> 100,> 100,> 100,> 100,> 100,–,–,–,–,–,–,–,–,–,–
CCn1c(C(=O)N(C2CC2)C2CC2)cc2c3c(ncn3C)c(Nc3cc(C)n(C)n3)nc21,> 100,> 100,> 100,32.5,> 100,> 100,> 100,> 100,> 100,> 100,> 100,> 100,> 100,1.26,> 100,> 100,> 100,> 100,> 100,> 100
O=C(Nc1ccc(F)cc1)c1ccc(NC2=C(Cl)C(=O)N(Cc3ccccc3)C2=O)cc1,12.3,33.3,38.5,37.4,15.3,19.1,39.6,26.7,30.3,39,3.43,13.5,18.1,15.9,3.59,5.23,16.5,11.2,13.4,8.68
O=C(O)C1C2CCC(O2)C1C(=O)N1CCCCC1 (configuration not stated),7.88,16.6,20.4,17.2,4.66,7.33,24.4,23.5,26.2,> 100,–,–,–,–,–,–,–,–,–,–
O=Nc1c(-c2c(O)[nH]c3ccc([N+](=O)[O-])cc23)[nH]c2ccc(O)cc12,14.7,> 100,0.439,3.64,3.04,> 29.1,> 100,0.827,> 87,> 60.6,0.665,0.383,0.211,0.0264,0.367,2.78,0.43,0.258,0.496,0.674
CCN(CC)CCNc1ccc([N+](=O)[O-])c2sc3ccccc3c(=O)c12,2.84,6.6,16.8,4.78,2.69,3.36,2.81,10.8,2.85,2.15,0.915,2.06,2.79,1.65,1.32,1.26,1.35,3.09,1.36,0.656
C1C[OH+]CC[OH+]CCNCC[OH+]CC[OH+]CCN1.[Cl-].[Pt+4],> 100,> 100,> 100,> 100,> 100,> 100,> 100,> 100,> 100,> 100,> 100,> 100,91.9,> 100,> 100,> 100,> 100,> 100,> 100,> 100
COc1ccc(-c2oc3c(OC)c(OC)c(OC)c(O)c3c(=O)c2OC)cc1OC,59.3,> 88.7,> 92,13.2,> 93.6,18.4,> 100,> 71.4,> 100,> 100,–,–,–,–,–,–,–,–,–,–
CC(C)C1(O)C(c2ccccc2)=C(c2ccccc2)C(c2ccccc2)=C1c1ccccc1,5.26,31.6,20.9,58.5,27.8,50.2,> 100,28.6,22.4,54.6,–,–,–,–,–,–,–,–,–,–
C=CCN(/C=C1/C(=O)O[C@H](COC)[C@@]2(C)C1=C(O)C(=O)C1=C2[C@H](OC(C)=O)C[C@]2(C)C(=O)CC[C@@H]12)CC=C,> 10,> 10,4.45,0.816,> 10,1.57,> 10,> 5.24,> 10,> 8.15,2,2.57,0.144,0.0364,0.562,0.0783,2.72,0.692,2.95,0.382
Cc1ccc(/C(=N\N=C(N)N)c2ccccc2)cc1,42.7,10.1,15.8,4.94,0.597,20.2,18.6,0.925,0.977,17.3,0.692,0.726,0.438,0.288,0.228,1.68,0.791,0.265,0.285,0.433
NC1CCCCC1.[O]=[Ge].[O]=[Ge].[O]=[Ge][OH].[O]=[Ge][OH],> 100,> 100,> 100,> 100,> 100,> 100,> 100,> 100,> 100,> 100,–,> 100,–,–,–,–,–,–,> 100,–
CN1CCN(c2ccc(NC(=O)c3nc4ccc5[nH]ncc5c4c4c3CCCC4)cc2C(F)(F)F)CC1,2.3,17.7,1.83,12.1,1.81,1.34,6.81,1.61,1.71,3.05,0.966,4.36,0.973,5.5,0.939,0.658,1.45,0.851,0.861,1.12
